Experimental data reported in paper PMC9585939, “Unveiling a family of spiro-β-lactams with anti-HIV and antiplasmodial activity via phosphine-catalyzed [3+2] annulation of 6-alkylidene-penicillanates and allenoates” (Frontiers in Chemistry, 2022).
Several values for one entry are separate records, joined by “and”; a condition that tells them apart may be missing. Identical values can stand only once. Like-named read-outs stand apart in the source and are kept apart here.

How the values were obtained:
[1] = Cellular viability assay (alamarBlue) in TZM-bl cells; type: cell-based; settings: human, 50% cytotoxic concentration
Protocol: Before the antiviral activity screening, all spirocyclopentene-β-lactams were assayed for their in vitro cytotoxic activity (CC50) in TZM-bl cells (Table 4).
TZM-bl cells (AIDS Research and Reference Reagent Program, National Institutes of Health, United States) were cultured in complete growth medium consisting of Dulbecco’s Minimal Essential Medium (DMEM) supplemented with 10% fetal bovine serum (FBS), 100 U/ml of penicillin–streptomycin (Gibco/Invitrogen, United States), 1 mM of sodium pyruvate (Gibco/Invitrogen, United States), 2 mM of L-glutamine (Gibco/Invitrogen, United States), and 1 mM of non-essential amino acids (Gibco/Invitrogen, United States). Cell cultures were maintained at 37°C in 5% CO2.
The in vitro cytotoxicity of test compounds was evaluated in TZM-bl cells using alamarBlue cell viability reagent (Life Technologies, United States), according to the instructions of the manufacturer. The cells were cultured in the presence and absence of serial-fold dilutions of the test compounds. Each dilution of each compound was performed in triplicate wells. Medium controls (only growth medium), cell controls (cells without test compound), and cytotoxicity controls (a compound that kills cells) were employed in each assay.

HIV-1 SG3.1 [2] = test: microbe, parasite or virus in culture; settings: for IC50 / IC90: 48 h; for IC90: read-out: IC90 HIV-1; for inhibition at 25 µg/mL: read-out: MPI (%) 25 μg/mL
Text: (§1) The HIV-1 SG3.1 is a reference subtype B strain that uses the CXCR4 coreceptor. It was obtained by transfection of HEK293T cells with pSG3.1 plasmid using jetPRIME transfection reagent (Polyplus-transfection SA, Illkirch, France), according to the instructions of the manufacturer.
(§2) Briefly, TZM-bl cells were infected with 200 TCID50 of HIV-1 or HIV-2 in the presence of serial-fold dilutions of the compounds in the growth medium, supplemented with diethylaminoethyl-dextran (DEAE-dextran). After 48 h of infection, luciferase expression was quantified with Pierce Firefly Luc One-Step Glow Assay Kit (ThermoFisher Scientific, Rockford, United States), according to the instructions of the manufacturer. For each compound dilution, the assay was set up in triplicate wells. Virus controls, cell controls, and inhibitors controls (drugs with a known action against each virus) were employed.

HIV-2 03PTHCC19 [3] = test: microbe, parasite or virus in culture; settings: Human immunodeficiency virus 2, TZM-bl; for IC50 / IC90: 48 h; for IC50: read-out: IC50 HIV-2; for IC90: read-out: IC90 HIV-2; for inhibition at 25 µg/mL: read-out: MPI (%) 25 μg/mL
Text: as §1, §2

P. berghei hepatic stage [4] = test: In vitro hepatic infection of Huh7 cells by luciferase-expressing P. berghei; type: cell-based; settings: Plasmodium berghei; for inhibition at 1 µM: Huh-7, read-out: percentage of inhibition of hepatic infection; for IC50: Huh-7, hepatic stage, Huh7 cells, 48 h after infection
Protocol: The inhibitory activity of test compounds on in vitro hepatic infection by P. berghei was determined by comparing the parasite load in compound- and solvent-treated P. berghei-infected Huh7 cells. Infection load was assessed by measurement of luminescence intensity in Huh7 cells infected, with a firefly luciferase-expressing P. berghei line, as previously described ([Ploemen et al., 2009]; [António et al., 2017]). Briefly, Huh7 cells were seeded in 96-well plates (1.0 × 10^4 cells per well) the day before drug treatment and infection. The medium was replaced by another medium containing the appropriate concentration of each compound approximately 1 h prior to infection with sporozoites freshly obtained through disruption of salivary glands of infected female Anopheles stephensi mosquitoes. Sporozoite addition was followed by centrifugation at 1,800 g for 5 min. Parasite infection load was measured 48 h after infection by a bioluminescence assay (Biotium). Cell confluence, a surrogate measure of compound toxicity to Huh7 cells, was assessed by fluorescence measurements using the alamarBlue assay, according to the manufacturer’s instructions. […] Specifically, non-linear regression analysis was employed to fit the normalized results of the dose-response curves, and IC50 values were determined using GraphPad Prism 8.0 (GraphPad Software, La Jolla, California, United States).

[5] = tested on: P. falciparum strain NF54; test: Blood stage antiplasmodial activity, SYBR green I flow cytometry; type: cell-based; settings: Plasmodium falciparum, NF54, 48 h
Protocol: Ring-stage synchronized cultures of P. falciparum strain NF54 at 2.5% hematocrit and at approximately 1% parasitemia were incubated with test compounds or dimethyl sulfoxide (DMSO, vehicle control) in 96-well plates for 48 h at 37°C in a 5% CO2 and 5% O2 atmosphere. Stock solutions of chloroquine (positive control) and compounds 9i, 12a, and 14a were prepared in DMSO. Working solutions were prepared from the stock solutions in complete malaria culture medium (CMCM), which consists of RPMI 1640 supplemented with 25 mM HEPES, 2.4 mM L-glutamine, 50 μg/ml gentamicin, 0.5% w/v Albumax, 11 mM glucose, 1.47 mM hypoxanthine, and 37.3 mM NaHCO3. For each measurement, 5 μl of the culture (approximately 800,000 cells) were stained with the DNA-specific dye SYBR green I. After 20 min of incubation in the dark, the stained sample was analyzed by flow cytometry. Approximately 100,000 events were analyzed in each flow cytometry measurement. Two independent experiments were performed, and all samples were analyzed in triplicate.

HIV-1 SG3.1 [6] = settings: ref Bártolo et al., 2021; Alves et al., 2021c; cited from earlier work
HIV-2 03PTHCC19 [7] = tested on: HIV-2 03PTHCC19; design: method as in Bártolo et al., 2021; settings: ref Bártolo et al., 2021; cited from earlier work
P. berghei hepatic stage [8] = tested on: P. berghei hepatic stage; design: method as in Bártolo et al., 2021; Alves et al., 2021c; settings: hepatic infection; ref Bártolo et al., 2021; Alves et al., 2021c; cited from earlier work
[9] = tested on: P. falciparum strain NF54; design: method as in Bártolo et al., 2021; Alves et al., 2021c; settings: erythrocytic infection; ref Bártolo et al., 2021; Alves et al., 2021c; cited from earlier work
[10] = Human immunodeficiency virus 1, TZM-bl, read-out: IC50 HIV-1, TZM-bl cells, 48 h
[11] = Human immunodeficiency virus 1, TZM-bl

Compound	CC50 [1]	IC50 (HIV-1 SG3.1 [2]; [10])	IC90 (HIV-1 SG3.1 [2]; [11])	inhibition at 25 µg/mL (HIV-1 SG3.1 [2]; [11])	IC50 (HIV-2 03PTHCC19 [3])	IC90 (HIV-2 03PTHCC19 [3])	inhibition at 25 µg/mL (HIV-2 03PTHCC19 [3])	inhibition at 1 µM (P. berghei hepatic stage [4])	IC50 (P. berghei hepatic stage [4])	IC50 [5]	melting point	IC50 (HIV-1 SG3.1 [6])	IC50 (HIV-2 03PTHCC19 [7])	IC50 (P. berghei hepatic stage [8])	IC50 (HIV-1 SG3.1 [2]; read-out: IC50 HIV-1, TZM-bl cells)	IC50 [9]
COc1ccc(COC(=O)C2=CCC3(C(=O)N4C(C(=O)OC(c5ccccc5)c5ccccc5)C(C)(C)SC43)C2C(=O)c2ccccc2)cc1 (stereo not shown) [Compound 9i, (1’R,2’R)-Benzhydryl spiro[(2-benzoyl-3-(4-methoxybenzyloxycarbonyl)cyclopent-3-ene)-1’,6-penicillanate]]	35.8 µM	0.015 µM	0.02 µM	100%	0.111 µM	0.35 µM	100%	< 50%	0.285 ± 0.044 µM	0.336 ± 0.067 µM	65.3 to 67.4 °C					
COC(=O)C1C(C(=O)OCc2ccccc2)=CCC12C(=O)N1C(C(=O)OC(c3ccccc3)c3ccccc3)C(C)(C)SC12 (stereo not shown) [BSS-722A]												0.65 µM	0.51 µM	< 5 µM		
COc1ccc(COC(=O)C2=CCC3(C(=O)N4C(C(=O)OC(c5ccccc5)c5ccccc5)C(C)(C)SC43)C2C(=O)c2ccc(F)cc2)cc1 (stereo not drawn) [Compound 14a, (1′R,2′R)-benzhydryl spiro[(2-(4-fluorobenzoyl)-3-(4-methoxybenzyloxycarbonyl)cyclopent-3-ene)-1′,6-penicillanate]]	75.1 µM	< 0.02 µM	0.048 µM	100%	0.013 µM	0.051 µM	100%	< 50%	0.75 ± 0.107 µM	0.292 ± 0.062 µM	72.9 to 74.9 °C				0.012 µM	
COC(=O)C1=CCC2(C(=O)N3C(C(=O)OC(c4ccccc4)c4ccccc4)C(C)(C)SC32)C1C(=O)Oc1ccccc1 (stereo not shown) [Compound 4]														2.29 µM		1.26 µM
CC1(C)SC2N(C(=O)C23CC=C(C(=O)OCc2ccccc2)C3C(=O)c2ccc(Br)cc2)C1C(=O)OC(c1ccccc1)c1ccccc1 (stereo not shown) [Compound 12c, (1’R,2’R)-Benzhydryl spiro[(2-(4-bromobenzoyl)-3-benzyloxycarbonylcyclopent-3-ene)-1’,6-penicillanate]]	55 µM	0.05 µM	0.116 µM	87%	0.093 µM	0.159 µM	100%		1 to 10 µM		156.5 to 158.5 °C					
CCOC(=O)C1=CCC2(C(=O)N3C(C(=O)OC(c4ccccc4)c4ccccc4)C(C)(C)SC32)C1C(=O)c1ccccc1 (stereo not shown) [Compound 5]												0.305 µM and < 0.3 µM		1.92 µM		0.844 µM
CC1(C)SC2N(C(=O)C23CC=C(C(=O)OCC=Cc2ccccc2)C3C(=O)c2ccccc2)C1C(=O)OC(c1ccccc1)c1ccccc1 (stereo not shown) [Compound 9n, (1’R,2’R)-Benzhydryl spiro[(2-benzoyl-3-cinnamyloxycarbonylcyclopent-3-ene)-1’,6-penicillanate]]	62.3 µM	0.017 µM	0.046 µM	100%	0.016 µM	0.064 µM	100%		1.57 ± 0.191 µM		67.8 to 69.4 °C					
COc1ccc(COC(=O)C2=CCC3(C(=O)N4C(C(=O)OC(c5ccccc5)c5ccccc5)C(C)(C)SC43)C2C(=O)c2ccc(Br)cc2)cc1 (stereo not shown) [Compound 14g, (1’R,2’R)-Benzhydryl spiro[(2-(4-bromobenzoyl)-3-(4-methoxybenzyloxycarbonyl)cyclopent-3-ene)-1’,6-penicillanate]]	101 µM	0.03 µM	0.099 µM	100%	0.087 µM	0.137 µM	100%		2.59 ± 0.219 µM		82.6 to 84.6 °C					
